Source: publication PMC4549042, “Targeting procaspase-3 with WF-208, a novel PAC-1 derivative, causes selective cancer cell apoptosis” (Journal of Cellular and Molecular Medicine, 2015)
Read-outs that look alike come from different tables or passages of the source.

How the values were obtained:
[1] = tested on: HL-60 and U-937 cell lines; experiment: Western blot of Bcl-2 family and IAP proteins in HL-60 and U-937; format: cell-based, human; conditions: various concentrations, 24 hrs
Experimental: Approximately 1 × 10^7 HL-60 cells were gathered after pre-treatment with PAC-1 and WF-208 as previously described. The tumour tissue protein was purified according to the reported methods. Western blotting was performed as previously described. All antibodies were purchased from Cell Signaling Technology. In brief, an equal amount of total protein extracts from cultured cells or tissues were fractionated by 10–15% SDS-PAGE and electrically transferred onto polyvinylidene difluoride (PVDF) membranes. Different primary antibodies and corresponding horseradish peroxidase-conjugated secondary antibodies were used to detect the proteins. The bound secondary antibodies on the PVDF membrane were reacted with ECL™ Western Blotting Reagents detection reagents (Thermo Fisher, Rockford, USA) and exposed to X-ray films. Results were normalized to the internal control β-actin.

[2] = tested on: human malignant cell lines; experiment: MTT cytotoxicity in fifteen human malignant cell lines; format: cell-based; conditions: for IC50: Homo sapiens, MTT, 72 hrs
Excerpt: Human malignant cell lines, A549, Colo-205, DU145, NCI-H226, Hep-3B, Hep-G2, K562, MCF-7, U-87, GBC-SD, MDA-MB-435S, PC-3, U-937, HL60, SH-SY5Y and human normal cell lines, MCF-10A and L-02, HUVEC were obtained from the American Type Culture Collection (Manassas, VA, USA) and National Center for Medical Culture Collection (Shanghai, China). They were routinely cultured in RPMI 1640, DMEM or DMEM/F12 (Gibco, New York, USA) supplemented with 10% foetal bovine serum (Gibco, New York, USA) and maintained at 37°C in a humidified incubator with 5% CO2.
The cell viability effects of the tested compounds were determined by MTT assay. Cells (1 × 10^4 cells/100 μl/well) were seeded into 96-well culture plates. After overnight incubation, cells were treated with various concentrations of compounds for 72 hrs. Subsequently, 10 μl MTT solution (2.5 mg/ml in PBS) was added to each well, than the cells were incubated for an additional 3–4 hrs at 37°C. After centrifugation (200 × g, 10 min.), the medium with MTT was aspirated, followed by the addition of 100 μl DMSO. The optical density of each well was measured at 570 nm with a Biotek Synergy TM HT Reader.

[3] = tested on: procaspase-3-silenced HL-60 cells; experiment: Cytotoxicity in procaspase-3 silenced HL-60 cells; format: cell-based, human; conditions: different concentrations, 24 hrs, vs scrambled siRNA control
Experimental: The cell viability effects of the tested compounds were determined by MTT assay. Cells (1 × 10^4 cells/100 μl/well) were seeded into 96-well culture plates. […] Subsequently, 10 μl MTT solution (2.5 mg/ml in PBS) was added to each well, than the cells were incubated for an additional 3–4 hrs at 37°C. After centrifugation (200 × g, 10 min.), the medium with MTT was aspirated, followed by the addition of 100 μl DMSO. The optical density of each well was measured at 570 nm with a Biotek Synergy TM HT Reader.
HL-60 cells were transfected with procaspase-3 siRNA (Invitrogen, New York, USA, 100 nmol/l final concentration, Sense siRNA Sequence: GUCUAACUGGAAAACCCAAtt Antisense siRNA Sequence: UUGGGUUUUCCAGUUAGACtt) by Lipofectamine 2000 (Invitrogen) according to the manufacturer’s instructions. Scrambled siRNA (Invitrogen) was control. The cDNA of human procaspase-3 was cloned into pIRES2-EGFP expression vector, and procaspase-3 and EGFP genes were separately expressed. The pIRES2-EGFP and pIRES2-EGFP-procaspase-3 were transiently transfected into MCF-7 cells. Expression of procaspase-3 was verified by western blotting.

HL-60 cells = experiment: Immunofluorescence of cleaved caspase-3; format: cell-based, human; conditions: 10 μM, 24 hrs
Experimental: HL-60 cells were treated with the 50 μM of PAC-1 and 10 μM WF-208 for 0.5, 1, 3, 6, 12 and 24 hrs. After such treatment, cells were fixed in 4% paraformaldehyde for 15 min., washed with PBS. Subsequently, cells were blocked with 10% bovine serum albumin (BSA) and Triton X-100 for 1 hr at room temperature and incubated at 4°C overnight with anti-cleaved caspase-3 rabbit mAb (1:100) diluted in 1% BSA. After three times of washing with PBS, cells were incubated with secondary antibody (FITC-conjugated goat anti-rabbit IgG, 1:200) for 1 hr at room temperature. Hoechst 33342 was used as a double staining for the nucleus. After washing with PBS, digital images of the cells captured under with ImageXpress 5000 (Molecular Devices, Sunnyvale, CA, USA). The images were quantified and analysed by using MetaXpress software (Molecular Devices). Cleaved caspase-3 level was expressed as the percentage of positively FITC-stained cells.

PC-3 xenograft = experiment: Human prostatic carcinoma PC-3 xenograft mouse model; format: in vivo
Experimental: To determine the anti-tumour activity of WF-208 in vivo, viable human prostate cancer PC-3 cells (5 × 10^6/100 μl PBS per mouse) were subcutaneously (s.c.) injected into the right flank of 7- to 8-week old male SCID mice. When the average tumour volume reached 100 mm^3, mice were randomly divided into various treatment and control group (eight mice per group). Tumour size was measured once every 2 days with a calliper (calculated volume = shortest diameter^2 × longest diameter/2). Body weight, diet consumption and tumour size were recorded once every 2 days. After 2 weeks, mice were killed and tumours were excised and stored at −80°C until further analysis.

[4] = Western blot of tumour tissue after drug exposure

O=C(CN1CCN(Cc2nc(-c3ccc(COc4ccc(Cl)cc4)cc3)no2)CC1)N/N=C/c1ccc(OCc2csc(Cc3ccc4c(c3)OCO4)n2)cc1O [C2] was tested, and the “expression of Bcl-2 family members Bcl-2, Bcl-xl, Bax and BID” value [1] was “not changed”, the “expression of XIAP and survivin” value [1] was “significantly down-regulated” and the IC50 ([2]; range over the cell lines, read-out: IC50 values against tumour cells) was 0.08 to 12.8 µM. For the same compound, the IC50 ([2]; read-out: overall mean IC50 value in the fifteen malignant cell lines) was 1.66 µM, the “fold increase of cytotoxicity (mean IC50) compared with PAC-1” value ([2]; fifteen malignant cell lines) was ~20 fold and the “cytotoxic effect in procaspase-3-silenced HL-60 cells” value [3] was “less than control HL-60 cells”. The “cells with procaspase-3 cleaved” value (HL-60 cells) was “more than 60%”, the “influence on body weight” value (PC-3 xenograft; 2.5 mg/kg i.v., 15 days) was “minimal influence” and the “tumour volume compared with control group” value (PC-3 xenograft; 2.5 mg/kg i.v., 15 days) was “significantly reduced”. For the same compound, the “expression of activated caspase-3 and cleaved PARP in tumour tissue” value (PC-3 xenograft; [4]) was “increased” and the “expression of survivin and XIAP in tumour tissue” value (PC-3 xenograft; [4]) was “decreased”.
